Test [1] relates to IFNγ, GM-CSF and TNFγ receptors on U87MG. The test can be described thus: Cytokine receptor expression on U87MG by flow cytometry. It counts as cell-based, human. The note with it: 24-hour treatment. As to the method:
U87MG (A) or HFA (B) were left untreated or treated with GM-CSF (50 ng/ml), IFNγ100 ng/ml) or TNFγ100 ng/ml). […] Percent expression of GM-CSF receptor (R), IFNγR, and TNFγR was measured 24 hours post-stimulation by flow cytometry. Data is representative of three experiments. Error bars represent standard deviations of the mean.
Prior to evaluating if GM-CSF, IFNγ, and TNFγ can augment HIV replication of astrocytes, a question was whether U87MG and HFA express the respective cytokine receptors. U87MG and HFA were treated with or without the respective cytokine for 24 hours and cytokine receptor expression was evaluated by flow cytometry. Approximately 35% of U87MG expressed the IFNγ receptor and a low level of GM-CSF and TNFγ receptors (<8%; FIG. 3A). […] Untreated HFA expressed only low levels of IFNγ receptor (6%) and this expression was abrogated with IFNγ treatment. GM-CSF and TNFγ receptors were not expressed on HFA.

The test system of test [2] is HIV reverse transcription in U87MG. The test can be described thus: Early and late HIV reverse transcription in U87MG, real-time PCR. The note with it: IFNγ pre-treated 24 h. It is filed as cell-based. The method, then:
FIG. 31 Comparative analysis of early and late HIV reverse transcription (RT) between infected untreated and infected IFN-γ treated astrocytes. U87MG cells were left untreated or treated with IFN-γ prior to HIV infection as described in Materials and Methods. Total DNA was isolated and amplified for tierh early HIV reverse transcription (reverse transcription initiation) using primer pair R and U5 at 24 h postinfection or late HIV transcription using primer pair R and 5NC at 96 h postinfection. (A) Comparison of amplified HIV DNA between untreated and IFN-γ-treated cultures. […] Rn stands for reading normalized, which equals the SyberGreen value divided by the ROX reference dye value.
Restriction to HIV replication is not at the level of HIV entry and reverse transcription. […] Early HIV reverse transcription was evaluated by real-time PCR at […] post-infection by amplifying with the R/U5 primer pairs, which detect negative-strand “strong-stop” DNA indicative of reverse transcription initiation. […]
Levels of HIV reverse transcription are similar between untreated and IFN-γ-treated astrocytes. […] Early HIV reverse transcription was evaluated by real-time PCR at 24 h postinfection by amplification with the R/U5 primer pair, which detects negative-strand “strong-stop” DNA indicative of reverse transcription initiation). […]

Take “IFNγ: cytokine secreted by lymphocytes, activated microglia and astrocytes; used to prime astrocytes”: the “Down-regulation of IFNγ receptor expression” value in test [1] was determined as 2 fold. Besides, in test [1] (untreated approximately 35%), the “IFNγ receptor expression after treatment” value is listed as “approximately 15%”. For the same substance, in test [2], the “Early HIV reverse transcription DNA (R/U5) vs untreated” value is “similar” and the “Late HIV reverse transcription DNA (R/5NC) vs untreated” value is “similar”.

These data come from patent publication US20080193563A1, “HARNESSING WNT SIGNALING TO RESTRICT HIV REPLICATION” (priority 2006, published 2008).
